Source: paper PMC7463537, “Synthesis and Evaluation of Antimicrobial and Cytotoxic Activity of Oxathiine-Fused Quinone-Thioglucoside Conjugates of Substituted 1,4-Naphthoquinones” (Molecules, 2020)
pEC50: −log10 of the molar value. Read-outs that look alike come from different tables or passages of the source.

How the values were obtained:
S. aureus ATCC 21027 [1] = experiment: Agar diffusion method, S. aureus; assay type: cell-based, Staphylococcus aureus; conditions: Staphylococcus aureus, ATCC21027, 24 h, 100 µg/well, 24 h, incl. 7 mm well; read-out: Diameter of Zone Inhibition, S. aureus
Protocol: (§1) Elyakov Pacific Institute of Bioorganic Chemistry, Far East Branch, Russian Academy of Sciences. Test substances were dissolved in DMSO at concentrations of 1.0, 0.1, and 0.01 mg/mL. All strains were grown on trypticase-soy agar TSA (BBL) at 37 °C. […] After incubation of the dishes at 37 °C for 24 h (for bacteria) and 48 h (for the fungus) at 28 °C, the diameters of the growth inhibition zones of pathogenic microorganisms (mm) were measured, including the diameter of the wells. Commercial antibacterial drugs (vancomicin and gentamicin) and antifungal (clotrimazol) drugs were used as positive controls.

B. cereus ATCC 10702 = experiment: Agar diffusion method, B. cereus; assay type: cell-based, Bacillus cereus; set-up: key to Diameter of Zone Inhibition, B. cereus: Zones within 20–40 mm mean strong antibiotic activity; zones up to 20 mm—moderate; ≤10 mm—weak; +—insignificant; conditions: 100 µg/well, 24 h, incl. 7 mm well
Protocol: as §1

P. aeruginosa ATCC 27853 = experiment: Agar diffusion method, P. aeruginosa; assay type: cell-based, Pseudomonas aeruginosa; conditions: for zone of inhibition at 100 µg/disc: Pseudomonas aeruginosa, ATCC27853, 100 µg/well, read-out: Diameter of Zone Inhibition, P. aeruginosa
Protocol: as §1

E. coli K-12 = experiment: Agar diffusion method, E. coli; assay type: cell-based, Escherichia coli; conditions: Escherichia coli, K12; 100 µg/well; read-out: Diameter of Zone Inhibition, E. coli
Protocol: as §1

C. albicans KMM 453 = experiment: Agar diffusion method, C. albicans; assay type: cell-based; conditions: Candida albicans, KMM453, 48 h, 100 µg/well, 48 h at 28 °C; read-out: Diameter of Zone Inhibition, C. albicans
Protocol: as §1

Solubility in DMSO = assay type: physicochemical; conditions: did not allow measurement of cytotoxic activity
[2] = tested on: human cervical cancer (HeLa); experiment: Cytotoxicity, MTT assay, HeLa cells; conditions: read-out: Cytotoxicity (EC50), HeLa, 24 h
[3] = tested on: mouse neuroblastoma (Neuro 2a); experiment: Cytotoxicity, MTT assay, Neuro 2a cells; conditions: read-out: Cytotoxicity (EC50), Neuro 2a, 24 h
[4] = tested on: mouse normal epithelial cell line (JB6 Cl 41-5a); experiment: Cytotoxicity, MTT assay, Jb6 Cl 41-5a normal epithelial cells; conditions: read-out: Cytotoxicity (EC50), Jb6 Cl 41-5a; MTT reagent, 24 h, non-cancer cells
[5] = tested on: mouse ascites Ehrlich carcinoma; experiment: Cytotoxicity, nonspecific esterase (FDA) assay, ascites Ehrlich carcinoma cells; conditions: read-out: Cytotoxicity (EC50), Ascites Ehrlich Carcinoma, 24 h
S. aureus ATCC 21027 [6] = experiment: Minimum inhibitory concentration, broth microdilution; assay type: cell-based, Staphylococcus aureus; conditions: Staphylococcus aureus, ATCC21027; broth microdilution, 24 h; read-out: Minimum inhibitory concentration (MIC) against S. aureus
Protocol: Stocks of substances were prepared in DMSO at a concentration of 10 mM. All studied compounds were tested in concentrations from 1.5 μM to 100 μM using twofold dilution. All tested compounds were add to the wells of the plates in a volume of 20 μL diluted in PBS (DMSO concentration < 1%). The bacterial culture of S. aureus ATCC 21027 (Collection of Marine Microorganisms PIBOC FEB RAS) was cultured in a Petri dish at 37 °C for 24 h on solid medium with the following composition; pepton—5.0 g/L, K2HPO4—0.2 g/L, glucose—1.0 g/L, MgSO4—0.05 g/L, yeast extract—1 g/L, agar—16.0 g/L, and distilled water—1.0 L. The pH of the medium was adjusted to 7.2–7.4 with NaOH solution.
The antimicrobial activity of the compounds was determined by the minimum inhibitory concentration (MIC) according to the method adopted by the Clinical and Laboratory Standards Institute (CLSI). Methods for dilution antimicrobial susceptibility tests for bacteria that grow aerobically followed the approved standard—tenth edition. CLSI document M07-A10, PA: Clinical and Laboratory Standards Institute; 2015, with a slight modification of the medium. The assays were performed in 96-well microplates in appropriate broth (pepton—5.0 g/L, K2HPO4—0.2 g/L, glucose—1.0 g/L, MgSO4—0.05 g/L, yeast extract—1 g/L, casein hydrolyzate—2.5 g/L, distilled water—1L). […] The MIC value is defined as the lowest concentration of compounds resulting in the complete inhibition of bacterial growth by measuring the absorbance at 600 nm with a microplate reader (BioTek, Winooski, Vt, USA). All experiments were performed twice in triplicate. Gentamicin was used as a positive control in concentration 1 mg/mL; 1% DMSO solution in PBS as a negative. The selectivity index for S. aureus has been defined as the ratio of EC50 for normal cells and the MIC value for the bacterial culture (SI = EC50/MIC).

in vitro = conditions: mouse
[7] = Cytotoxicity, statements of the text over all tested cell lines; conditions: human, mouse

SMILES | zone of inhibition at 100 µg/disc (S. aureus ATCC 21027 [1]) [mm] | Diameter of Zone Inhibition, B. cereus (B. cereus ATCC 10702) | zone of inhibition at 100 µg/disc (P. aeruginosa ATCC 27853) [mm] | zone of inhibition at 100 µg/disc (E. coli K-12) [mm] | zone of inhibition at 100 µg/disc (C. albicans KMM 453) [mm] | Solubility in DMSO (Solubility in DMSO) | melting point [°C] | pEC50 ([2]; MTT reagent) | pEC50 ([3]; MTT reagent) | pEC50 [4] | pEC50 ([5]; FDA) | zone of inhibition at 100 µg/disc (B. cereus ATCC 10702; Bacillus cereus, ATCC10702, 24 h, read-out: Diameter of Zone Inhibition, B. cereus) [mm] | Diameter of Zone Inhibition, P. aeruginosa (P. aeruginosa ATCC 27853; 100 µg/well) [mm] | MIC (S. aureus ATCC 21027 [6]) [µM] | pEC50 (in vitro) | pEC50 ([2]; Homo sapiens, HeLa) | pEC50 ([3]; N2a) | EC50 at 24 h [7] [µM] | pEC50 ([5]; Mus musculus, Ehrlich)
COc1ccc(OC)c2c1C(=O)C1=C(S[C@@H]3O[C@H](CO)[C@H](O)[C@H](O)[C@H]3O1)C2=O [Compound 17b, (2R,3R,4S,4aR,12aS)-3,4-Dihydroxy-2-hydroxymethyl-7,10-dimethoxy-3,4,4a,12a-tetrahydro-2H-naphtho[2,3-b]pyrano[2,3-e][2,5]oxathiine-6,11-dione] | 0 | + | 0 | 0 | 0 | poor solubility | > 350 |  |  |  |  |  |  |  |  |  |  |  | 
C=C(C)CCCC1(C)OC(=O)C23CCC4C(=CCC5C(C)(C)C(OC6OCC(OS(=O)(=O)O)C(O)C6OC6OC(C)C(OC7OC(CO)C(O)C(OC8OC(CO)C(O)C(OC)C8O)C7O)C(O)C6OC6OCC(O)C(O)C6O)CCC45C)C2(C)CC(=O)C13 (stereo not shown) [Cucumarioside A2-2, reference compound] |  |  |  |  |  |  |  | 4.37 | 4.43 | 4.82 | 4.73 |  |  |  |  |  |  |  | 
O=C1C=CC(=O)c2c(O)cccc21 [Juglone, 5-hydroxy-1,4-naphthoquinone, reference compound] | 0 |  | < 20 | 0 |  |  |  |  |  |  |  | 0 | 12 ± 2 | > 100 | < 4.00 | < 4.00 | < 4.00 | > 100 | < 4.00
